Converted amounts (≈) assume the structure as drawn.
What was measured:
[1] = tested on: Mycobacterium tuberculosis; assay: Inhibitory activity against Mycobacterium tuberculosis H37Rv; format: functional
[2] = tested on: Escherichia coli; assay: Inhibitory activity against Escherichia coli ANSI; format: functional
[3] = biological target: T1, 3-oxoacyl-[acyl-carrier-protein] synthase 1 (Escherichia coli K-12, UniProt P0A953); assay: Inhibitory activity against FabB from Escherichia coli ANSI
T1 sequence (P0A953 whole entry): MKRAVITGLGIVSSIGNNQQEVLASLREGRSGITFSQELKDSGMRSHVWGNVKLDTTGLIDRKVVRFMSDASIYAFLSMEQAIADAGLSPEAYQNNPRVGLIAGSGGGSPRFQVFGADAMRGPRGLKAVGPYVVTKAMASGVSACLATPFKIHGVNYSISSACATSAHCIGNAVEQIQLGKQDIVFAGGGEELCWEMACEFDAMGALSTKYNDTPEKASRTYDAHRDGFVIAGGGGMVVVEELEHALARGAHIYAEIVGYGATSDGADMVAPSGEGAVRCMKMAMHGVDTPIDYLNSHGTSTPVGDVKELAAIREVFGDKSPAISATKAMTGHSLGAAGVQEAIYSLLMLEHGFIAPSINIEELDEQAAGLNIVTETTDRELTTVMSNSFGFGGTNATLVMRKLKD

[4] = biological target: T2, 3-oxoacyl-[acyl-carrier-protein] synthase 3 (Escherichia coli, UniProt C3TDZ2); assay: Inhibitory activity against FabH from Escherichia coli ANSI
T2 sequence (C3TDZ2 whole entry): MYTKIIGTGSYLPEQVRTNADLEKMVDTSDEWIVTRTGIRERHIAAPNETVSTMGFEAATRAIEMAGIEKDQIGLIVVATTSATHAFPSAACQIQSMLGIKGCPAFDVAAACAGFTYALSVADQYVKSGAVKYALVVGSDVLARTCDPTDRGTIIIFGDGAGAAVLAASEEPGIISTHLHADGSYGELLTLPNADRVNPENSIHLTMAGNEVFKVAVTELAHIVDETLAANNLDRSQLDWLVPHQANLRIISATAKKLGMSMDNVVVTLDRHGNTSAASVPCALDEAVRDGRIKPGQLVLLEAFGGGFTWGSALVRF

[5] = biological target: T3, Mycobacterial beta-ketoacyl-[acyl-carrier-protein] synthase III (Mycobacterium tuberculosis, UniProt P9WNG3); assay: Inhibitory activity against FabH from Mycobacterium tuberculosis H37Rv
T3 sequence (P9WNG3 whole entry): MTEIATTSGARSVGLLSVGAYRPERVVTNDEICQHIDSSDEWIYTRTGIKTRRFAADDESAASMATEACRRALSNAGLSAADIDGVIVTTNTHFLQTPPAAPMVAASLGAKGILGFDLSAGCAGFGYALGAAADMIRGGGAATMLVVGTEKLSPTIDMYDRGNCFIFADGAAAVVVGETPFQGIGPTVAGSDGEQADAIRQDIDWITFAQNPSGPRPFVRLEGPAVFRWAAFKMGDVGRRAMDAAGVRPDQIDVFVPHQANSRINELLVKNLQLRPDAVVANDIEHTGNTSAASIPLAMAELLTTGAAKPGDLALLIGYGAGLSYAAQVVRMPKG

[6] = biological target: T4, 3-oxoacyl-[acyl-carrier-protein] synthase 2 (Mycobacterium tuberculosis, UniProt P9WQD7); assay: Inhibitory activity against KasB from Mycobacterium tuberculosis H37Rv
T4 sequence (P9WQD7 whole entry): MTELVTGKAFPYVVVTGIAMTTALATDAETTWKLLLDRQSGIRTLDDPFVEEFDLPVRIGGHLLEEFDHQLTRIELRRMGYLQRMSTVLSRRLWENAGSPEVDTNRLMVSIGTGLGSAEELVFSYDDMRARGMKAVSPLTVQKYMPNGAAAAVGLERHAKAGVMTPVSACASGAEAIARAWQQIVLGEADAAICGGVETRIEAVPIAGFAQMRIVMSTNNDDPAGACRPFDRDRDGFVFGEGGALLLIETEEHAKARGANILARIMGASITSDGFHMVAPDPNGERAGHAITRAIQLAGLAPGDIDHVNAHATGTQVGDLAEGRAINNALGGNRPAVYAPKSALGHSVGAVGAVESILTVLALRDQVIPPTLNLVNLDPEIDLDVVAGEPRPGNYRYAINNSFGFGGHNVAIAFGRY

[7] = biological target: wild-type apo-KasA (Mycobacterium tuberculosis, UniProt P9WQD9); assay: Inhibitory activity against KasA from Mycobacterium tuberculosis H37Rv
wild-type apo-KasA, sequence (P9WQD9 whole entry, looked up): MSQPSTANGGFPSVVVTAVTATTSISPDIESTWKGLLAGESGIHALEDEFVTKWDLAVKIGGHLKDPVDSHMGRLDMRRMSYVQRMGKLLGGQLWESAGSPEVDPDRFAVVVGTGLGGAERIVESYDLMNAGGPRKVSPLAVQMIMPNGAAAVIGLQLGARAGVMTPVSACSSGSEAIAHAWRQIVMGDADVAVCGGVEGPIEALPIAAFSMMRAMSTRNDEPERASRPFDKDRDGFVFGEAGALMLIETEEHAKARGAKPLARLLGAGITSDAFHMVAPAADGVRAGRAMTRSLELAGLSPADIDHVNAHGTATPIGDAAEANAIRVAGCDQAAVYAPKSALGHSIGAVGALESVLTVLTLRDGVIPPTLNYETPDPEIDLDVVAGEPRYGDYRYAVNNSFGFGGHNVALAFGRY

Row | SMILES | MIC [1] [µM] | MIC [2] [µM] | IC50 [3] [µM] | IC50 [4] [µM] | IC50 [5] [µM] | IC50 [6] [µM] | IC50 [7] [µM]
1 | CCCCCCCCCCCCCCCCCCC1(C)SC(O)=C(C)C1=O (stereo not given) | > 1000 |  |  |  |  |  | 
2 | CC1=C(O)C(C)(Cc2c(Cl)cccc2Cl)SC1=O (stereo not given) | 500 (≈ 152 µg/mL) | > 1000 | > 1000 | > 1000 | > 1000 | > 1000 | > 1000
3 | COc1ccc(CC2(C)SC(O)=C(C)C2=O)cc1 (stereo not given) | > 1000 | > 1000 | > 1000 | > 1000 | > 1000 | > 1000 | > 1000
4 | CC1=C(O)C(C)(CCCc2ccccc2)SC1=O (stereo not given) | 1000 (≈ 262 µg/mL) | > 1000 | > 1000 | > 1000 | > 1000 | > 1000 | > 1000
5 | CC1=C(O)C(C)(CC2CCC2)SC1=O (stereo not given) | 1000 (≈ 212 µg/mL) | > 1000 | > 1000 | > 1000 | > 1000 | > 1000 | > 1000
6 | CCCCCCCCCCCCCCCCCCCCC1(C)SC(O)=C(C)C1=O (stereo not given) | > 1000 |  |  |  |  |  | 
7 | CCCCC(CC)CC1(C)SC(O)=C(C)C1=O (stereo not given) | 1000 (≈ 256 µg/mL) | > 1000 | > 1000 | > 1000 | > 1000 | > 1000 | > 1000
8 | CCCCCCCCCCC(C)C1(C)SC(O)=C(C)C1=O (stereo not given) | 500 (≈ 156 µg/mL) | 35 (≈ 10.9 µg/mL) | > 1000 | 100 | 65 | > 1000 | > 1000
9 | C=CCCC1(C)SC(=O)C(C)=C1O (stereo not given) | > 1000 | > 1000 | > 1000 | > 1000 | > 1000 | > 1000 | > 1000
10 | CC1=C(O)C(C)(CCc2ccccc2)SC1=O (stereo not given) | 1000 (≈ 248 µg/mL) | > 1000 | > 1000 | > 1000 | > 1000 | > 1000 | > 1000
11 | C=C/C(C)=C/[C@@]1(C)SC(=O)C(C)=C1O [THIOLACTOMYCIN] | 62.5 (≈ 13.1 µg/mL) | 6 (≈ 1.26 µg/mL) | 12 |  |  | 6 | 
12 | COc1ccccc1CC1(C)SC(O)=C(C)C1=O (stereo not given) | > 1000 | > 1000 | > 1000 | > 1000 | > 100 | > 1000 | > 1000
13 | CCCCCCCC1(C)SC(O)=C(C)C1=O (stereo not given) | 1000 (≈ 242 µg/mL) | 200 (≈ 48.5 µg/mL) | > 1000 | > 1000 | > 1000 | > 1000 | > 1000
14 | CCCCCCCCCCCCCCCC1(C)SC(O)=C(C)C1=O (stereo not given) | 500 (≈ 177 µg/mL) |  |  |  |  |  | 
15 | CC1=C(O)C(C)(Cc2cccc(Cl)c2)SC1=O (stereo not given) | 1000 (≈ 269 µg/mL) | > 1000 | > 1000 | > 1000 | > 1000 | > 1000 | > 100
16 | CC1=C(O)C(C)(CC2CCCCC2)SC1=O (stereo not given) | > 1000 | > 1000 | > 1000 | > 1000 | > 1000 | > 1000 | > 1000
17 | CC1=C(O)C(C)(Cc2cc(C)ccc2C)SC1=O (stereo not given) | > 1000 | > 1000 | > 1000 | > 1000 | > 1000 | > 1000 | > 1000
18 | CCCCCCCCCCCCCCCCC1(C)SC(O)=C(C)C1=O (stereo not given) | > 1000 |  |  |  |  |  | 

Row | SMILES | MIC [1] [µM] | MIC [2] [µM] | IC50 [3] [µM] | IC50 [4] [µM] | IC50 [5] [µM] | IC50 [6] [µM] | IC50 [7] [µM]
19 | CC1=C(O)C(C)(Cc2ccc(F)cc2)SC1=O (stereo not given) | > 1000 | > 1000 | > 1000 | > 1000 | > 100 | > 1000 | > 1000
20 | CC1=C(O)C(C)(Cc2ccc(C)cc2)SC1=O (stereo not given) | > 1000 | > 1000 | > 1000 | > 1000 | > 1000 | > 1000 | > 1000
21 | COc1cc(CC2(C)SC(O)=C(C)C2=O)cc(OC)c1 (stereo not given) | > 1000 | > 1000 | > 1000 | > 1000 | > 1000 | > 1000 | > 1000
22 | CCCCCCCCC(C)C1(C)SC(O)=C(C)C1=O (stereo not given) | 1000 (≈ 284 µg/mL) | 35 (≈ 9.96 µg/mL) | > 1000 | > 1000 | 75 | > 1000 | > 1000
23 | CC1=C(O)C(C)(Cc2cccc(C(F)(F)F)c2)SC1=O (stereo not given) | 1000 (≈ 302 µg/mL) | > 1000 | > 1000 | > 1000 | > 1000 | > 1000 | > 1000
24 | CCCCCCCCCC1(C)SC(O)=C(C)C1=O (stereo not given) | 500 (≈ 135 µg/mL) | 100 (≈ 27 µg/mL) | > 1000 | > 100 | > 100 | > 1000 | > 1000
25 | CC1=C(O)C(C)(Cc2ccccc2C)SC1=O (stereo not given) | 1000 (≈ 248 µg/mL) | > 1000 | > 1000 | > 1000 | > 1000 | > 1000 | > 1000
26 | CC/C=C/CC1(C)SC(O)=C(C)C1=O (stereo not given) | > 1000 | > 1000 | > 1000 | > 1000 | > 1000 | > 1000 | > 1000
27 | CC1=C(O)SC(C)(CCC(C)C)C1=O (stereo not given) | > 1000 | > 1000 | > 1000 | > 1000 | > 1000 | > 1000 | > 1000
28 | CC1=C(O)C(C)(Cc2ccc([N+](=O)[O-])cc2)SC1=O (stereo not given) | > 1000 | > 1000 | > 1000 | > 1000 | > 1000 | > 1000 | > 1000
29 | CCCCCCCCCCCC1(C)SC(O)=C(C)C1=O (stereo not given) | 500 (≈ 149 µg/mL) | 25 (≈ 7.46 µg/mL) | > 1000 | > 100 | 100 | > 1000 | > 1000
30 | CC1=C(O)C(C)(Cc2ccc(C(C)(C)C)cc2)SC1=O (stereo not given) | 1000 (≈ 290 µg/mL) | > 1000 | > 1000 | > 1000 | > 100 | > 1000 | > 1000
31 | C=CCCCCCCC1(C)SC(=O)C(C)=C1O (stereo not given) | 500 (≈ 127 µg/mL) | 200 (≈ 50.9 µg/mL) | > 1000 | > 1000 | > 1000 | > 1000 | > 1000
32 | CC1=C(O)C(C)(Cc2ccccc2Cl)SC1=O (stereo not given) | 1000 (≈ 269 µg/mL) | > 1000 | > 1000 | > 1000 | > 1000 | > 1000 | > 1000
33 | COc1cccc(CC2(C)SC(O)=C(C)C2=O)c1 (stereo not given) | > 1000 | > 1000 | > 1000 | > 1000 | > 1000 | > 1000 | > 1000
34 | CC1=C(O)C(C)(Cc2cccc(C)c2)SC1=O (stereo not given) | 1000 (≈ 248 µg/mL) | > 1000 | > 1000 | > 1000 | > 1000 | > 1000 | > 1000
35 | CC1=C(O)C(C)(Cc2c(C)cc(C)cc2C)SC1=O (stereo not given) | 1000 (≈ 276 µg/mL) | > 1000 | > 1000 | > 1000 | > 1000 | > 1000 | > 1000
36 | CCCCCC(C)C1(C)SC(O)=C(C)C1=O (stereo not given) | 1000 (≈ 242 µg/mL) | 160 (≈ 38.8 µg/mL) | > 1000 | > 1000 | > 1000 | > 1000 | > 1000

From ChEMBL document CHEMBL1148604 (J Med Chem, 2006)
